Counter-ions that a name gives are not always drawn. Like-named read-outs stand apart in the source and are kept apart here.
Experiments:
[1] = target: MCL-1 (Homo sapiens, UniProt Q07820); experiment: Protein-protein interaction assay MCL-1/Noxa BH3 peptide (MCL-1 assay), TR-FRET; format: binding; settings: MBP-MCL-1 / Noxa BH3-derived peptide, median
Procedure, shortened: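 Displacement of the biotinylated Noxa BH3 peptide from MBP-tagged human MCL-1 (1 nM) is detected by time-resolved FRET. Compounds are tested in duplicate across eleven concentrations up to 20 μM, incubated 1 h at 22 °C and overnight at 4 °C, and IC50 is fitted with a four-parameter equation.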

[2] = system: SUDHL5; experiment: Induction of caspase-3/7 activity (Caspase-Glo 3/7), SUDHL5; format: cell-based; settings: caspase-3/7 induction, SUDHL5 cells, 3 h treatment, median
Procedure, shortened: (§1)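 Caspase-Glo 3/7 luminescence, 3 h compound exposure, 37 °C, humidified. Minus medium-only blank. EC50 fit: C0=1, plateau = reference max induction.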

[3] = system: SUDHL10; experiment: Induction of caspase-3/7 activity (Caspase-Glo 3/7), SUDHL10; format: cell-based; settings: caspase-3/7 induction, SUDHL10 cells, 3 h treatment, median
Procedure, shortened: as §1

[4] = system: SUDHL5; experiment: Anti-proliferative effect (CellTiter-Glo, 72 h), SUDHL5; format: cell-based; settings: SUDHL5 cells, antiproliferation, median, read-out: Antiproli SUDHL5 [M] (median)
Procedure, shortened: (§2)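 CTG luminescence read-out after 72 h compound exposure, 37 °C, humidified. Time-zero reference plate read at plating.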

[5] = system: A2780; experiment: Anti-proliferative effect (CellTiter-Glo, 72 h), A2780; format: cell-based; settings: A2780 cells, median, read-out: IC50 antiproliferation assay A2780 [M] (median)
Procedure, shortened: as §2

[6] = system: MV-4-11; experiment: Anti-proliferative effect (CellTiter-Glo, 72 h), MV-4-11; format: cell-based; settings: MV-4-11 cells, median, read-out: IC50 antiproliferation assay MV-4-11 [M] (median)
Procedure: Assessment of the Anti-Proliferative Effect of Compounds in Different Cell Lines
The impact of compounds on the proliferation of different cell lines was assessed using the CellTiter-Glo® Luminescent Cell Viability reagent from Promega (G7573). Of note, SUDHL10 and SUDHL5 (DLBCL), NCI-H929 (Multiple Myeloma), A2780 (ovarian carcinoma) as well as MV-4-11(AML) cells are sensitive to MCL-1 inhibition.
In parallel, cells were plated in a reference (day 0) plate for time zero determination.
Rim wells were excluded. The cells were incubated for 72 h hours in a humidified incubator at 37° C. The day 0 plate was measured by adding 30 μl/well of CTG solution (CellTiter-Glo® Luminescent Cell Viability reagent, Promega G7573) to time zero wells in the reference plate followed by a 10 minutes incubation and luminescence reading at 0.1 ms, using the PHERAstar FS microplate reader (BMG Labtech).
After 72 h incubation, the treated plates were measured in the same way as the day 0 plate mentioned above.

[7] = system: SUDHL5; experiment: Induction of cytotoxicity (CellTiter-Glo, 5 h), SUDHL5
[8] = system: SUDHL10; experiment: Induction of cytotoxicity (CellTiter-Glo, 5 h), SUDHL10
[9] = read-out: Cytotox SUDHL5 [M] (median), SUDHL5 cells, cytotoxicity induction, CellTiter-Glo, 5 h incubation, median
[10] = read-out: Cytotox SUDHL10 [M] (median), SUDHL10 cells, cytotoxicity induction, CellTiter-Glo, 5 h incubation, median
[11] = Homo sapiens, SU-DHL-5, 72 h, 72 h
[12] = Homo sapiens, SU-DHL-5, 5 h, read-out: Cytotox SUDHL5 [M] (median), SUDHL5 cells, cytotoxicity induction, CellTiter-Glo, 5 h, median
[13] = Homo sapiens, SU-DHL10, 5 h, read-out: Cytotox SUDHL10 [M] (median), SUDHL10 cells, cytotoxicity induction, CellTiter-Glo, 5 h, median

Chain of MCL-1 (Q07820 whole entry): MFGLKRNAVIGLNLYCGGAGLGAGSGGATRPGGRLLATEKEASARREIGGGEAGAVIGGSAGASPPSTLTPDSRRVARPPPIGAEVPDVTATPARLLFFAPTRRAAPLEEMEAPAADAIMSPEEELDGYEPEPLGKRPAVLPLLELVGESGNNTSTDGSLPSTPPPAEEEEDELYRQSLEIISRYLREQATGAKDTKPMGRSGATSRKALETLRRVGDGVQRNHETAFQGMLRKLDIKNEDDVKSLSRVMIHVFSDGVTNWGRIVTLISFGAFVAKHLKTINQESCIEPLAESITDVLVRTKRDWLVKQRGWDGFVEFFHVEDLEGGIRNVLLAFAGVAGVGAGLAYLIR

SMILES | IC50 [1] | EC50 [2] | EC50 [3] | IC50 ([4]; 72 h) | IC50 ([5]; Homo sapiens, A2780, 72 h) | IC50 [6] | EC50 ([3]; Homo sapiens, SU-DHL10, 3 h) | IC50 ([4]; Homo sapiens, SU-DHL-5, 72 h, 72 h incubation) | IC50 [5] | IC50 ([6]; Homo sapiens, MV4-11, 72 h) | EC50 ([2]; Homo sapiens, SU-DHL-5, 3 h) | IC50 [4, 11] | IC50 ([4]; 72 h incubation) | IC50 ([7]; read-out: Cytotox SUDHL5 [M] (median), SUDHL5 cells, cytotoxicity induction, CellTiter-Glo, 5 h, median) | IC50 ([8]; read-out: Cytotox SUDHL10 [M] (median), SUDHL10 cells, cytotoxicity induction, CellTiter-Glo, 5 h, median) | IC50 [7, 9] | IC50 ([8]; Homo sapiens, SU-DHL10, 5 h, read-out: Cytotox SUDHL10 [M] (median), SUDHL10 cells, cytotoxicity induction, CellTiter-Glo, 5 h incubation, median) | IC50 [8, 10] | IC50 [7, 12] | IC50 [8, 13]
Cc1ccc2c(CCCOc3cccc4cc(F)ccc34)c(C(=O)O)n3c2c1-c1c(nn(CCN2CCOCC2)c1C)COCCCC3 (single isomer, unassigned) [Example 293, (+)-7-{3-[(6-fluoronaphthalen-1-yl)oxy]propyl}-3,4-dimethyl-2-[2-(morpholin-4-yl)ethyl]-2,10,11,12,13,15-hexahydropyrazolo[4′,3′:9,10][1,6]oxazacycloundecino[8,7,6-hi]indole-8-carboxylic acid-N-ethylethanamine Salt] | 0.000676 µM | 0.309 µM | 0.947 µM | 6.43e-07 M | 1.08e-05 M | 2.08e-06 M | – | – | – | – | – | – | – | 4.23e-07 M | 9.88e-07 M | – | – | – | – | –
COc1ccc2c(CCCOc3cccc4ccccc34)c(C(=O)O)n3c2c1-c1c(C)nn(C)c1COCCCC3 (single isomer, unassigned; enantiomer 1) [Example 352, 4-methoxy-1,3-dimethyl-7-[3-(naphthalen-1-yloxy)propyl]-1,10,11,12,13,15-hexahydropyrazolo[4′,3′:9,10][1,6]oxazacycloundecino[8,7,6-hi]indole-8-carboxylic Acid Ammonium Salt (Enantiomer 1)] | 0.0454 µM | – | – | – | > 3.3e-05 M | 1.05e-05 M | > 33 µM | – | – | – | > 33 µM | 1.19e-05 M | – | – | – | – | – | – | > 3.3e-05 M | > 3.3e-05 M
Cc1ccc2c(C(C)CCOc3cccc4ccccc34)c(C(=O)O)n3c2c1-c1c(C)nn(C)c1COCCCC3 (single isomer, unassigned) [Example 260, 1,3,4-trimethyl-7-[4-(naphthalen-1-yloxy)butan-2-yl]-1,10,11,12,13,15-hexahydropyrazolo[4′3′:9,10][1,6]oxazacycloundecino[8,7,6-hi]indole-8-carboxylic Acid] | 0.00875 µM | 10.2 µM | 11.3 µM | – | – | – | – | – | 2.2e-05 M | 4.35e-06 M | – | – | 3.61e-06 M | – | – | 6.3e-06 M | – | 1.18e-05 M | – | –
Cc1ccc2c(CCCOc3cccc4cc(F)ccc34)c(C(=O)O)n3c2c1-c1c(nn(CCN2CCOCC2)c1C)COCCCC3 (racemic) [Example 292, (rac)-7-{3-[(6-fluoronaphthalen-1-yi)oxy]propyl}-3,4-dimethyl-2-[2-(morpholin-4-yl)ethyl]-2,10,11,12,13,15-hexahydropyrazolo[4′,3′:9,10][1,6]oxazacycloundecino[8,7,6-hi]indole-8-carboxylic Acid] | 0.00184 µM | – | – | – | 1.58e-05 M | – | 1.21 µM | – | – | 8.52e-06 M | 0.671 µM | 1.59e-06 M | – | – | – | – | – | – | 1.13e-06 M | 1.52e-06 M
Cc1ccc2c(C(C)CCOc3cccc4cc(F)ccc34)c(C(=O)O)n3c2c1-c1c(nn(C)c1C)COCCCC3 (single isomer, unassigned) [Example 277, 7-{4-[(6-fluoronaphthalen-1-yl)oxy]butan-2-yl}-2,3,4-trimethyl-2,10,11,12,13,15-hexahydropyrazolo[4′3′:9,10][1,6]oxazacycloundecino[8,7,6-hi]indole-8-carboxylic Acid] | 0.0013 µM | 1.4 µM | 1.8 µM | – | 1.5e-05 M | – | – | – | – | 8.78e-06 M | – | – | 2.05e-06 M | – | – | 2.1e-06 M | – | 2.28e-06 M | – | –
CCc1nn(C)c2c1-c1cccc3c(CCCOc4cccc5cc(Cl)ccc45)c(C(=O)O)n(c13)CCCCOC2 (racemic) [Example 304, (rac)-11-(3-((6-chloronaphthalen-1-yl)oxy)propyl)-12-ethyl-10-methyl-4,5,6,7,9,10-hexahydropyrazolo[4′,3′:9,10][1,6]oxaazacycloundecino[8,7,6-hi]indole-2-carboxylic Acid] | 0.0105 µM | – | – | – | 1.34e-05 M | – | > 33 µM | – | – | 3.13e-05 M | > 33 µM | 9.84e-06 M | – | – | – | – | – | – | > 3.3e-05 M | > 3.3e-05 M

Continued, in another order:

IC50 [1] | EC50 [2] | EC50 [3] | IC50 ([4]; 72 h) | IC50 ([5]; Homo sapiens, A2780, 72 h) | IC50 [6] | EC50 ([3]; Homo sapiens, SU-DHL10, 3 h) | IC50 ([4]; Homo sapiens, SU-DHL-5, 72 h, 72 h incubation) | IC50 [5] | IC50 ([6]; Homo sapiens, MV4-11, 72 h) | EC50 ([2]; Homo sapiens, SU-DHL-5, 3 h) | IC50 [4, 11] | IC50 ([4]; 72 h incubation) | SMILES | IC50 ([7]; read-out: Cytotox SUDHL5 [M] (median), SUDHL5 cells, cytotoxicity induction, CellTiter-Glo, 5 h, median) | IC50 ([8]; read-out: Cytotox SUDHL10 [M] (median), SUDHL10 cells, cytotoxicity induction, CellTiter-Glo, 5 h, median) | IC50 [7, 9] | IC50 ([8]; Homo sapiens, SU-DHL10, 5 h, read-out: Cytotox SUDHL10 [M] (median), SUDHL10 cells, cytotoxicity induction, CellTiter-Glo, 5 h incubation, median) | IC50 [8, 10] | IC50 [7, 12] | IC50 [8, 13]
0.00424 µM | 6.96 µM | – | – | – | – | 26.2 µM | 9.92e-06 M | > 3.3e-05 M | 1.79e-05 M | – | – | – | CN1CCCCn2c(C(=O)O)c(CCCOc3cccc4ccccc34)c3cccc(c32)-c2c(CC(F)(F)F)nn(C)c2C1 (single isomer, unassigned) [Example 223, 1,14-dimethyl-7-[3-(naphthalen-1-yloxy)propyl]-3-(2,2,2-trifluoroethyl)-10,11,12,13,14,15-hexahydro-1H-pyrazolo[3′,4′:8,9][1,6]diazacycloundecino[10,11,1-hi]indole-8-carboxylic Acid] | – | – | 8.33e-06 M | 2.88e-05 M | > 3.3e-05 M | – | –
0.00678 µM | 11.2 µM | 25.1 µM | – | – | 2.19e-05 M | – | – | 2.6e-05 M | – | – | – | 9.48e-06 M | Cn1nc2c(c1OC(F)F)-c1cccc3c(CCCOc4cccc5ccccc45)c(C(=O)O)n(c13)CCCCOC2 (single isomer, unassigned) [Example 236, (+)-3-(difluoromethoxy)-2-methyl-7-[3-(naphthalen-1-yloxy)propyl]-2,10,11,12,13,15-hexahydropyrazolo[4′,3′:9,10][1,6]oxazacycloundecino[8,7,6-hi]indole-8-carboxylic Acid] | – | – | 1.06e-05 M | – | 2.52e-05 M | – | –
0.00943 µM | > 33 µM | – | > 3.3e-05 M | > 3.3e-05 M | – | > 33 µM | – | – | > 3.3e-05 M | 27.8 µM | 2.53e-05 M | – | Cc1c2c(nn1C)CNCCCCn1c(C(=O)O)c(CCCOc3cccc4ccccc34)c3cccc-2c31 (racemic) [Example 356, (rac)-2,3-dimethyl-7-[3-(naphthalen-1-yloxy)propyl]-10,11,12,13,14,15-hexahydro-2H-pyrazolo[3′,4′:8,9][1,6]diazacycloundecino[10,11,1-hi]indole-8-carboxylic Acid] | – | – | – | – | – | > 3.3e-05 M | > 3.3e-05 M
0.00373 µM | 2.99 µM | 14 µM | – | 2.03e-05 M | – | – | – | – | 2.68e-06 M | – | – | 3.12e-06 M | COc1c2c(nn1C)COCCCCn1c(C(=O)O)c(CCCOc3cccc4ccccc34)c3cccc-2c31 (single isomer, unassigned) [Example 208, 3-methoxy-2-methyl-7-[3-(naphthalen-1-yloxy)propyl]-2,10,11,12,13,15-hexahydropyrazolo[4′,3′:9,10][1,6]oxazacycloundecino[8,7,6-hi]indole-8-carboxylate] | – | – | 2.63e-06 M | – | 9.98e-06 M | – | –
